Source: patent US5141926A, “Erythromycin derivatives” (Abbott Laboratories, priority 1990, dated 1992)
Values after ≈ are worked out from the molar mass of the structure shown. Like-named read-outs stand apart in the source and are kept apart here.

Tests used:
[1] = test system: Enterococcus faecium ATCC 8043; experiment: Agar plate dilution MIC; type: cell-based
Experimental: (§1) 6-Deoxyerythromycins A, B and C and 6-deoxy-15-norerythromycin B were tested for antibacterial activity using a standard agar plate dilution method in brain heart infusion broth. Erythromycin A was utilized as a control.

Eschericha coli SS = experiment: Agar plate dilution MIC; type: cell-based; conditions: brain heart infusion broth
Experimental: as §1

Escherichia coli JUHL = experiment: Agar plate dilution MIC; type: cell-based
Experimental: as §1

[2] = test system: Micrococcus luteus ATCC 9341; experiment: Agar plate dilution MIC; type: cell-based
Experimental: as §1

[3] = test system: Staphylococcus aureus ATCC 6538P; experiment: Agar plate dilution MIC; type: cell-based; conditions: ATCC6538P
Experimental: as §1

[4] = test system: Staphylococcus aureus CMX 553; experiment: Agar plate dilution MIC; type: cell-based
Experimental: as §1

[5] = test system: Staphylococcus aureus NCTC 10649; experiment: Agar plate dilution MIC; type: cell-based
Experimental: as §1

[6] = test system: Staphylococcus epidermis 3519; experiment: Agar plate dilution MIC; type: cell-based; conditions: brain heart infusion broth
Experimental: as §1

[7] = test system: Streptococcus agalactiae CMX 508; experiment: Agar plate dilution MIC; type: cell-based
Experimental: as §1

[8] = test system: Streptococcus pyogenes EES61; experiment: Agar plate dilution MIC; type: cell-based
Experimental: as §1

[9] = test system: Staphylococcus aureus 10649; experiment: Acute mouse protection test; type: in vivo, female CF-1 mice; conditions: read-out: ED50 (Dose Providing 50% Survival)
Experimental: (§2) The in vivo activity of 6-deoxyerythromycin A was evaluated using the acute mouse protection test. Mouse mortality was used to calcualte an ED50 value, i.e., the dose of drug required to protect 50% of the test animals against death due to inoculum challenge.
(§3) The acute mouse protection test was conducted as described by Fernandes, et al. (Antimicrob. Agents Chemother. 29:201-208(1986)) on female CF-1 mice weighing 20-25 grams. The mice were injected intraperitoneally with bacterial suspensions at a concentration 100 times that producing an LD50 response. 6-Deoxyerythromycin A or erythromycin A were administered orally at 1 and 5 hours post-infection. The median effective doses for the cumulative mortalities on the sixth day after infection were calculated using a trimmed logit analysis (Hamilton, et. al., Environ Sci. Technol. 11:714-719 (1977)).

[10] = test system: Streptococcus pneumoniae 6303; experiment: Acute mouse protection test; type: in vivo, female CF-1 mice; conditions: read-out: ED50 (Dose Providing 50% Survival)
Experimental: as §2, §3

[11] = test system: Streptococcus pyogenes C203; experiment: Acute mouse protection test; type: in vivo, female CF-1 mice; conditions: read-out: ED50 (Dose Providing 50% Survival)
Experimental: as §2, §3

[12] = test system: murine infections of Staphylococci and Streptococci; experiment: Acute mouse protection test, overall result; type: in vivo, female CF-1 mice; conditions: orally administered
Experimental: as §2, §3

physchem = conditions: citric acid solution, pH 2.2
Experimental: The relative acid stability of one of the compounds of the present invention was compared to that of erythromycin A. 11.8 mg of 6-deoxyerythromycin A was suspended in citric acid solution (pH 2.2) and allowed to remain at 37° C. for 8 hours. Aliquots were removed at 2, 5, 10, and 20 minutes and at 1, 2, 3, 4, 5, 6 and 8 hours. Degradation was quenced by adjusting each aliquot to pH 9.6 with 7.5 N NH4 OH, followed by extraction with methylene chloride.
10.5 mg of erythromycin A was identically suspended in critic acid solution (pH 2.0) and allowed to remain at 37° C. for 10 minutes. Aliquots were removed at 2, 5 and 10 minutes. Degradation was quenched by adjusting each aliquot to pH 9.6 with 7.5 N NH4 OH, followed by extraction with methylene chloride.

[13] = ATCC8043, Table 5, brain heart infusion broth, read-out: MIC value
[14] = Table 5, brain heart infusion broth
[15] = ATCC9341, Table 5, brain heart infusion broth, read-out: MIC value
[16] = Table 5, brain heart infusion broth, read-out: MIC value
[17] = CMX553, Table 5, brain heart infusion broth, read-out: MIC value
[18] = NCTC10649, Table 5, brain heart infusion broth, read-out: MIC value
[19] = Staphylococcus, 3519, Table 5, read-out: MIC value
[20] = CMX508, Table 5, brain heart infusion broth, read-out: MIC value
[21] = EES61, Table 5, brain heart infusion broth, read-out: MIC value
[22] = ATCC8043, Table 4, brain heart infusion broth, read-out: MIC value
[23] = Table 4, brain heart infusion broth
[24] = ATCC9341, Table 4, brain heart infusion broth, read-out: MIC value
[25] = Table 4, brain heart infusion broth, read-out: MIC value
[26] = CMX553, Table 4, brain heart infusion broth, read-out: MIC value
[27] = NCTC10649, Table 4, brain heart infusion broth, read-out: MIC value
[28] = Staphylococcus, 3519, Table 4, read-out: MIC value
[29] = CMX508, Table 4, brain heart infusion broth, read-out: MIC value
[30] = EES61, Table 4, brain heart infusion broth, read-out: MIC value

CO[C@]1(C)C[C@H](O[C@H]2[C@H](C)[C@@H](O[C@@H]3O[C@H](C)C[C@H](N(C)C)[C@H]3O)[C@@H](C)C[C@@H](C)C(=O)[C@H](C)[C@@H](O)[C@@H](C)[C@@H](C)OC(=O)[C@@H]2C)O[C@@H](C)[C@@H]1O [6-Deoxy-15-norerythromycin B]
MIC [1, 13]: 2 µg/mL (≈ 2.91 µM) | MIC (Eschericha coli SS; Table 5): 2 µg/mL (≈ 2.91 µM) | MIC (Escherichia coli JUHL; [14]): > 128 µg/mL | MIC [2, 15]: 0.25 µg/mL (≈ 0.363 µM) | MIC [3, 16]: 2 µg/mL (≈ 2.91 µM) | MIC [4, 17]: 2 µg/mL (≈ 2.91 µM) | MIC [5, 18]: 2 µg/mL (≈ 2.91 µM) | MIC [6, 19]: 2 µg/mL (≈ 2.91 µM) | MIC [7, 20]: 0.5 µg/mL (≈ 0.727 µM) | MIC [8, 21]: 0.25 µg/mL (≈ 0.363 µM)

CC[C@H]1OC(=O)[C@H](C)[C@@H](O[C@H]2C[C@@](C)(OC)[C@@H](O)[C@H](C)O2)[C@H](C)[C@@H](O[C@@H]2O[C@H](C)C[C@H](N(C)C)[C@H]2O)[C@@H](C)C[C@@H](C)C(=O)[C@H](C)[C@@H](O)[C@]1(C)O [6-Deoxyerythromycin A]
MIC [1, 22]: 0.25 µg/mL (≈ 0.348 µM) | MIC (Eschericha coli SS; Table 4): 2 µg/mL (≈ 2.79 µM) | MIC (Escherichia coli JUHL; [23]): > 128 µg/mL | MIC [2, 24]: 0.06 µg/mL (≈ 0.0836 µM) | MIC [3, 25]: 1 µg/mL (≈ 1.39 µM) | MIC [4, 26]: 0.5 µg/mL (≈ 0.696 µM) | MIC [5, 27]: 1 µg/mL (≈ 1.39 µM) | MIC [6, 28]: 1 µg/mL (≈ 1.39 µM) | MIC [7, 29]: 0.12 µg/mL (≈ 0.167 µM) | MIC [8, 30]: 0.25 µg/mL (≈ 0.348 µM) | ED50 ([9]; Staphylococcus aureus, 10649, 144 h, oral, 1 and 5 hours post-infection, intraperitoneal inoculum 100 times LD50, mortality on sixth day): 90.8 mg/kg | ED50 ([10]; Streptococcus pneumoniae, 6303, 144 h, oral, 1 and 5 hours post-infection, intraperitoneal inoculum 100 times LD50, mortality on sixth day): 24.9 mg/kg | ED50 ([11]; C203, 144 h, oral, 1 and 5 hours post-infection, intraperitoneal inoculum 100 times LD50, mortality on sixth day): 32.4 mg/kg | effectiveness compared with erythromycin A [12]: as effective as erythromycin A | remaining at 4 h (physchem): > 50% | remaining at 8 h (physchem): ~40%

CC[C@H]1OC(=O)[C@H](C)[C@@H](O[C@H]2C[C@@](C)(OC)[C@@H](O)[C@H](C)O2)[C@H](C)[C@@H](O[C@@H]2O[C@H](C)C[C@H](N(C)C)[C@H]2O)[C@@H](C)C[C@@H](C)C(=O)[C@H](C)[C@@H](O)[C@H]1C [6-Deoxyerythromycin B]
MIC [1, 13]: 0.5 µg/mL (≈ 0.712 µM) | MIC (Eschericha coli SS; Table 5): 4 µg/mL (≈ 5.7 µM) | MIC (Escherichia coli JUHL; [14]): > 128 µg/mL | MIC [2, 15]: 0.12 µg/mL (≈ 0.171 µM) | MIC [3, 16]: 1 µg/mL (≈ 1.42 µM) | MIC [4, 17]: 1 µg/mL (≈ 1.42 µM) | MIC [5, 18]: 1 µg/mL (≈ 1.42 µM) | MIC [6, 19]: 1 µg/mL (≈ 1.42 µM) | MIC [7, 20]: 0.25 µg/mL (≈ 0.356 µM) | MIC [8, 21]: 0.12 µg/mL (≈ 0.171 µM)

CC[C@H]1OC(=O)[C@H](C)[C@@H](O[C@H]2C[C@@](C)(O)[C@@H](O)[C@H](C)O2)[C@H](C)[C@@H](O[C@@H]2O[C@H](C)C[C@H](N(C)C)[C@H]2O)[C@@H](C)C[C@@H](C)C(=O)[C@H](C)[C@@H](O)[C@]1(C)O [6-Deoxyerythromycin C]
MIC [1, 22]: 0.25 µg/mL (≈ 0.355 µM) | MIC (Eschericha coli SS; Table 4): 16 µg/mL (≈ 22.7 µM) | MIC (Escherichia coli JUHL; [23]): > 128 µg/mL | MIC [2, 24]: 0.25 µg/mL (≈ 0.355 µM) | MIC [3, 25]: 2 µg/mL (≈ 2.84 µM) | MIC [4, 26]: 4 µg/mL (≈ 5.68 µM) | MIC [5, 27]: 2 µg/mL (≈ 2.84 µM) | MIC [6, 28]: 4 µg/mL (≈ 5.68 µM) | MIC [7, 29]: 0.25 µg/mL (≈ 0.355 µM) | MIC [8, 30]: 0.5 µg/mL (≈ 0.71 µM)

CC[C@H]1OC(=O)[C@H](C)[C@@H](O[C@H]2C[C@@](C)(OC)[C@@H](O)[C@H](C)O2)[C@H](C)[C@@H](O[C@@H]2O[C@H](C)C[C@H](N(C)C)[C@H]2O)[C@](C)(O)C[C@@H](C)C(=O)[C@H](C)[C@@H](O)[C@]1(C)O [Erythromycin A, reference compound]
MIC ([1]; ATCC8043, read-out: MIC value, Table 4, brain heart infusion broth): 0.12 µg/mL (≈ 0.164 µM) | MIC ([1]; ATCC8043, read-out: MIC value, Table 5, brain heart infusion broth): 0.06 µg/mL (≈ 0.0818 µM) | MIC (Eschericha coli SS; Table 4): 1 µg/mL (≈ 1.36 µM) | MIC value (Eschericha coli SS; Table 5): 1 µg/mL (≈ 1.36 µM) | MIC (Escherichia coli JUHL; [23]): 64 µg/mL (≈ 87.2 µM) | MIC (Escherichia coli JUHL; [14]): 32 µg/mL (≈ 43.6 µM) | MIC ([2]; ATCC9341, read-out: MIC value, Table 4, brain heart infusion broth): 0.03 µg/mL (≈ 0.0409 µM) | MIC ([2]; ATCC9341, read-out: MIC value, Table 5, brain heart infusion broth): 0.015 µg/mL (≈ 0.0204 µM) | MIC ([3]; read-out: MIC value, Table 4, brain heart infusion broth): 0.25 µg/mL (≈ 0.341 µM) | MIC ([3]; read-out: MIC value, Table 5, brain heart infusion broth): 0.12 µg/mL (≈ 0.164 µM) | MIC ([4]; CMX553, read-out: MIC value, Table 4, brain heart infusion broth): 0.25 µg/mL (≈ 0.341 µM) | MIC ([4]; CMX553, read-out: MIC value, Table 5, brain heart infusion broth): 0.12 µg/mL (≈ 0.164 µM) | MIC ([5]; NCTC10649, read-out: MIC value, Table 4, brain heart infusion broth): 0.25 µg/mL (≈ 0.341 µM) | MIC ([5]; NCTC10649, read-out: MIC value, Table 5, brain heart infusion broth): 0.12 µg/mL (≈ 0.164 µM) | MIC ([6]; Staphylococcus, 3519, read-out: MIC value, Table 4): 0.5 µg/mL (≈ 0.681 µM) | MIC ([6]; Staphylococcus, 3519, read-out: MIC value, Table 5): 0.12 µg/mL (≈ 0.164 µM) | MIC ([7]; CMX508, read-out: MIC value, Table 4, brain heart infusion broth): 0.06 µg/mL (≈ 0.0818 µM) | MIC ([7]; CMX508, read-out: MIC value, Table 5, brain heart infusion broth): 0.03 µg/mL (≈ 0.0409 µM) | MIC ([8]; EES61, read-out: MIC value, Table 4, brain heart infusion broth): 0.03 µg/mL (≈ 0.0409 µM) | MIC ([8]; EES61, read-out: MIC value, Table 5, brain heart infusion broth): 0.015 µg/mL (≈ 0.0204 µM) | ED50 ([9]; Staphylococcus aureus, 10649, po, 144 h): 120 mg/kg | ED50 ([10]; Streptococcus pneumoniae, 6303, po, 144 h): 24.8 mg/kg | ED50 ([11]; C203, po, 144 h): 54.5 mg/kg | remaining at 2 min (physchem): < 10%

CC[C@H]1OC(=O)[C@H](C)[C@@H](O[C@H]2C[C@@](C)(OC)[C@@H](O)[C@H](C)O2)[C@H](C)[C@@H](O[C@@H]2O[C@H](C)C[C@H](N(C)C)[C@H]2O)[C@](C)(O)C[C@@H](C)C(=O)[C@H](C)[C@@H](O)[C@H]1C [Erythromycin B, reference compound]
MIC [1, 13]: 0.12 µg/mL (≈ 0.167 µM) | MIC (Eschericha coli SS; Table 5): 2 µg/mL (≈ 2.79 µM) | MIC (Escherichia coli JUHL; [14]): 32 µg/mL (≈ 44.6 µM) | MIC [2, 15]: 0.03 µg/mL (≈ 0.0418 µM) | MIC [3, 16]: 0.25 µg/mL (≈ 0.348 µM) | MIC [4, 17]: 0.25 µg/mL (≈ 0.348 µM) | MIC [5, 18]: 0.25 µg/mL (≈ 0.348 µM) | MIC [6, 19]: 0.25 µg/mL (≈ 0.348 µM) | MIC [7, 20]: 0.03 µg/mL (≈ 0.0418 µM) | MIC [8, 21]: 0.03 µg/mL (≈ 0.0418 µM)
